Measurements from patent EP4534539A1, “DIDEUTERATED CAMPTOTHECIN DERIVATIVE AND PREPARATION METHOD THEREFOR” (priority 2022, dated 2023).
Like-named read-outs stand apart in the source and are kept apart here.

Columns and labels:
HCT116 cells = experiment: HCT-116 cell inhibitory activity test (MTT); format: cell-based; conditions: Homo sapiens, read-out: IC50 Activity
Experimental: HCT116 cells (purchased from ATCC) were cultured in a 5% CO2 incubator at 37 °C using DMEM culture medium (purchased from Gibco) supplemented with 10% fetal bovine serum and 1% penicillin-streptomycin solution. The cells were seeded in 96-well plates at 3000 cells per well and cultured overnight. Different concentrations of drugs were respectively added, and the cells were placed in a normal incubator (21 % O2, 5% CO2, and 74% N2) and cultured for 72 h. 100 µL of culture medium was removed. 10 µL of MTT solution (5 mg/mL) was added. Then the cells were cultured in the incubator for 4 hours. 50 µL of triple combination solution (10% SDS, 5% isobutanol, and 0.012 mol/L HCl) was added. The cells were placed in the incubator overnight. OD values were measured at 540 nm wavelength, and median inhibition concentration IC50 of the drug on tumor cell growth was calculated (n=3). Compounds with activity designated as "A" provide IC50≤10nM. Compounds with activity designated as "B" provide IC50 of 10 nM to 100 nM. Compounds with activity designated as "C" provide IC50 of 100 nM to 1000 nM. Compounds with activity designated as "D" provide IC50 of 1000 nM to 10000 nM. Titer (nM); Efficacy (IC50).

MDA-MB-468 cells = experiment: Inhibitory activity on MDA-MB-468 cells (MTT); format: cell-based; conditions: for IC50: Homo sapiens, read-out: MDA-MB-468 IC50
Experimental: (§1) MDA-MB-468 cells (purchased from ATCC) were cultured in L-15 culture medium (purchased from Sigma-Aldrich), NCI-N87 cells (purchased from ATCC) were cultured in RPMI-1640 culture medium (purchased from Gibco), and HT29 cells (purchased from ATCC) were cultured in McCoy's 5A culture medium (purchased from Gibco), each of which was supplemented with 10% fetal bovine serum and 1% penicillin-streptomycin solution, and placed in a 5% CO2 incubator at 37°C. The cells were seeded in 96-well plates at 3000 cells per well and cultured overnight. Different concentrations of drugs were respectively added, and the cells were placed in a normal incubator (21% O2, 5% CO2, and 74% N2) and cultured for 72 h. 100 µL of culture medium was removed. 10 µL of MTT solution (5 mg/mL) was added. Then the cells were cultured in the incubator for 4 hours. 50 µL of triple combination solution (10% SDS, 5% isobutanol, and 0.012 mol/L HCl) was added. The cells were placed in the incubator overnight. OD values were measured at 540 nm wavelength, and median inhibition concentration IC50 of the drug on tumor cell growth was calculated (n=3).

NCI-N87 cells = experiment: Inhibitory activity on NCI-N87 cells (MTT); format: cell-based, human; conditions: for IC50: Homo sapiens, read-out: NCI-N87 IC50
Experimental: as §1

HT29 cells = experiment: Inhibitory activity on HT29 cells (MTT); format: cell-based, human; conditions: for IC50: Homo sapiens, read-out: HT29 IC50
Experimental: as §1

[1] = Pharmacokinetic test - rats; set-up: species or system SD rats; conditions: in vivo, 3 mg/kg, Rat PK, IV, 3 mpk, single injection, plasma; for Vd: read-out: Vz
Experimental: Experimental objective: To evaluate the pharmacokinetic characteristics of the compound of the present application in rats.
SD rats (Beijing Vital River Laboratory Animal Technology Co., Ltd.) were randomly divided, 6 rats/group, half male and half female, and were injected once with a sample (10% DMSO-90% (20% 2-hydroxypropyl-β-cyclodextrin-physiological saline), diluted according to the dose). Plasma samples were respectively taken before administration, and at 5 min, 30 min, 1 h, 2 h, 4 h, 6 h, 8 h, 10 h, and 24 h after administration. The sample concentration in plasma was determined by LC-MS method, and pharmacokinetic parameters were calculated (see Table 4). Table 4 Pharmacokinetic characteristics of the compound of the present application in SD rats

[2] = format: in vivo; conditions: SD rats, intravenous administration once a day for 7 consecutive days; result in words
Source text: The possible toxic reactions and severity thereof of the drug on SD rats were observed after continuous intravenous administration for 7 days. The toxicity of the compound in rodents was preliminarily evaluated. SD rats (Beijing Vital River Laboratory Animal Technology Co., Ltd.) were randomly divided, 6 rats/group, half male and half female, and injected with samples (preparation: 10% DMSO-90% (20% 2-hydroxypropyl-β-cyclodextrin-physiological saline), diluted according to the dose) once a day for 7 consecutive days. Weight and food intake were monitored every two days, and the status of the animals was observed. Blood samples were taken 24 h after the last dose for hematology, blood biochemistry and coagulation indexes.

[3] = Pharmacokinetic test - mice; format: in vivo, Balb/c mice; conditions: mouse, 3 mg/kg, Mice PK, IV, 3 mpk, single injection, plasma
Experimental: Experimental objective: To evaluate the pharmacokinetic characteristics of the compound of the present application in mice.
Balb/c mice (purchased from Beijing Vital River) were randomly divided, 12 mice/group, half male and half female, and were injected once with a sample (10% DMSO-90% (20% 2-hydroxypropyl-β-cyclodextrin-physiological saline), diluted according to the dose). Cross samples of plasma were respectively taken before administration, and at 5 min, 30 min, 1 h, 2 h, 4 h, 6 h, 8 h, 10 h, and 24 h after administration. The sample concentration in plasma was determined by LC-MS method, and pharmacokinetic parameters were calculated (see Table 3). Table 3 Pharmacokinetic characteristics of the compound of the present application in mice

| Compound | MDA-MB-468 Inh.max (MDA-MB-468 cells; MDA-MB-468 cells, 72 h, MTT) [%] | NCI-N87 Inh.max (NCI-N87 cells; NCI-N87 cells, 72 h, MTT) [%] | HT29 Inh.max (HT29 cells; HT29 cells, 72 h, MTT) [%] | AUC(0-inf) [1] [ng·h/mL] | Cmax [1] [ng/mL] | clearance [1] [mL/min/kg] | half-life [1] [h] | Vd [1] [L/kg] | safety [2] | further results |
| --- | --- | --- | --- | --- | --- | --- | --- | --- | --- | --- |
| [2H]C1([2H])OC(=O)[C@](O)(CC)c2cc3n(c(=O)c21)Cc1c-3nc2ccc(O)cc2c1CC [Compound A-9] | >80 | >80 | >90 | 99.5 | 288 | 167 | 1.35 | 19.5 | better safety | IC50 (HCT116 cells; HCT-116, 72 h): < 10 nM; IC50 (MDA-MB-468 cells; MDA-MB-468, 72 h): < 10 nM; IC50 (NCI-N87 cells; NCI-N87, 72 h): < 10 nM; IC50 (HT29 cells; HT-29, 72 h): < 10 nM |
| [2H]C1([2H])OC(=O)[C@](O)(CC)c2cc3n(c(=O)c21)Cc1c-3nc2cc(F)c(C)c3c2c1[C@@H](N)CC3 [Compound A-11] | >80 | >70 | >90 | 135 | 215 | 381 | 0.91 | 30.1 | better safety | IC50 (HCT116 cells; HCT-116, HCT116 cells, 72 h, MTT, n=3): < 10 nM; IC50 (MDA-MB-468 cells; MDA-MB-468 cells, 72 h, MTT, n=3): < 10 nM; IC50 (NCI-N87 cells; NCI-N87 cells, 72 h, MTT, n=3): < 10 nM; IC50 (HT29 cells; HT-29, HT29 cells, 72 h, MTT, n=3): < 10 nM; AUC(0-inf) [3]: 321 ng·h/mL; Cmax [3]: 902 ng/mL; clearance [3]: 156 mL/min/kg; half-life [3]: 1.19 h; Vd ([3]; read-out: Vz): 16 L/kg |
